Entries after “also recorded” stand apart in the source; their conditions may differ. Read-outs that look alike come from different tables or passages of the source.
Tests used:
[1] = system: chick dorsal root ganglia; assay: Chick dorsal root ganglion cultures and neurite outgrowth; format: cell-based; conditions: read-out: ED50, neurite outgrowth
Excerpt: (§1) Forty-eight hours later, the number of neurite with a length greater than one DRG explant was quantitated. The number of neurites expressed in untreated DRG's was subtracted from the neurite number of Example 17—treated samples to yield Example 17—dependent specific neurite outgrowth.
as §1, with “form” for “from”, “outgrowth. Quantitative dose-dependent neurite outgrowth elicited by Example 17 is presented.” for “outgrowth.”
Dorsal root ganglia were dissected from chick embryos of ten day gestation. Whole ganglion explants were cultured on thin layer Matrigel-coated 12 well plates with Liebovitz L15 plus high glucose media supplemented with 2 mM glutamine and 10% fetal calf serum, and also containing 10 μM cytosine β-D arabinofuranoside (Ara C) at 37° C. in an environment containing 5% CO2. Twenty-four hours later, the DRGs were treated with various concentrations of nerve growth factor, immunophilin ligands or combinations of NFG plus drugs. Forty-eight hours after drug treatment, the ganglia were visualized under phase contrast or Hoffman Modulation contrast with a Zeiss Axiovert inverted microscope. Photomicrographs of the explants were made, and neurite outgrowth was quantitated. Neurites longer than the DRG diameter were counted as positive, with total number of neurites quantitated per each experimental condition. Three to four DRGs are cultured per well, and each treatment was performed in duplicate.

FKBP = FKBP (Homo sapiens, UniProt P62942); assay: Ki test procedure: inhibition of peptidyl-prolyl isomerase (rotamase) activity, chymotrypsin-coupled assay; format: biochemical; conditions: apparent Ki
Description: The inhibition of this reaction caused by the addition of different concentrations of inhibitor is determined, and the data is analyzed as a change in first-order rate constant as a function of inhibitor concentration to yield the apparent Ki values.
In a plastic cuvette are added […] of ice cold assay buffer (25 mM HEPES, pH 7.8, 100 mM NaCl), […] of FKBP (2.5 mM in 10 mM Tris-Cl pH 7.5, 100 mM NaCl, 1 mM dithiothreitol), […] of chymotrypsin (50 mg/ml in 1 mM HCl) and […] of test compound at various concentrations in dimethyl sulfoxide.

sciatic nerve = assay: Sciatic nerve axotomy (crush), axon number and myelination; format: in vivo, Sprague-Dawley rats
Excerpt: FIGS. 3A-3D are photomicrographs of rat […] sections. […] Sciatic nerves of 150 g male Sprague-Dawley rats were crushed at the level of the hips. […] Animals were sacrificed, sciatic nerves removed and nerve segments 2 mm distal to the crush site were sectioned and stained with Holmes silver stain (to assess axon number) and Luxol fast blue (to assess remyelination). The micrographs show sciatic nerve sections of sham operated rats, vehicle-treated lesioned animals. […] Six-week old male Sprague-Dawley rats were anesthetized, and the sciatic nerve exposed and crushed, at the level of the hip, by forceps. Test compounds or vehicle were administered subcutaneously just prior to the lesion and daily for the following 18 days. Sections of the sciatic nerve were stained with Holmes silver stain to quantify the number of axons, and Luxol fast blue to quantify the level of myelination. […] “Sham” denotes control animals that received vehicle but were not lesioned; “Vehicle” denotes animals that were lesioned and received only vehicle (i.e., no drug).

[2] = chick DRG explants, 48 h after drug treatment
[3] = 30 mg/kg s.c., just prior to lesion and daily for 18 days

Chain of FKBP (P62942 whole entry): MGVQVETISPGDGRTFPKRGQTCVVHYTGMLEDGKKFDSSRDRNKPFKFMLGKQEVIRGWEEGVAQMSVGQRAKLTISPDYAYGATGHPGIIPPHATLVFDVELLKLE

Ki (FKBP) [nM]	Structure (SMILES)	EC50 ([1]; Gallus gallus, 48 h) [nM]	also measured
–	CC(C)(C)C(=O)C(=O)N1CCC[C@H]1C(=O)OCCC(c1ccccc1)c1ccccc1 [Example 28, 3,3-Diphenyl-1-propyl (2S)-1-(3,3-dimethyl-1,2-dioxobutyl)-2-pyrrolidinecarboxylate]	0.5	–
–	CCC(C)(C)C(=O)C(=O)N1CCC[C@H]1C(=O)OCCC(c1ccccc1)c1ccccc1 [Example 25, 3,3-diphenyl-1-propyl (2S)-1-(3,3-dimethyl-1,2-dioxopentyl)-2-pyrrolidinecarboxylate]	0.5	–
–	CCC(C)(C)C(=O)C(=O)N1CCC[C@H]1C(=O)OCCCc1ccccn1 [Example 18, 3-(2-Pyridyl)-1-propyl (2S)-1-(3,3-dimethyl-1,2-dioxopentyl)-2-pyrrolidinecarboxylate]	30	–
600	CCC(C)(C)C(=O)C(=O)N1CCC[C@H]1C(=O)OC/C=C/C1CCCCC1 [Example 8, 3-cyclohexyl-1-prop-2-(E)-enyl (2S)-1-(3,3-dimethyl-1,2-dioxopentyl)-2-pyrrolidinecarboxylate]	–	–
–	CCC(C)(C)C(=O)C(=O)N1CCC[C@H]1C(=O)OCCCc1cc(OC)ccc1OC [Example 14, 3-(2,5-dimethoxyphenyl)-1-propyl (2S)-1-(3,3-dimethyl-1,2-dioxopentyl)-2-pyrrolidine-carboxylate]	2	–
1970	O=C(C(=O)N1CCC[C@H]1C(=O)OCCCc1ccccc1)c1ccccc1 [Example 13, 3-phenyl-1-propyl (2S)-1-(1,2-dioxo-2-phenyl)ethyl-2-pyrrolidinecarboxylate]	–	–
170	CCC(C)(C)C(=O)C(=O)N1CCC[C@H]1C(=O)OCCCc1ccc2c(c1)OCO2 [Example 5]	–	EC50 [1, 2]: 10 nM
160	CCC(C)(C)C(=O)C(=O)N1CCC[C@H]1C(=O)OC/C=C/c1ccc2c(c1)OCO2 [Example 6, 3-(4,5-methylenedioxyphenyl)-1-prop-2-(E)-enyl (2S)-1-(3,3-dimethyl-1,2-dioxopentyl)-2-pyrrolidinecarboxylate]	75	–
–	O=C(CCC1CCCCC1)C(=O)N1CCC[C@H]1C(=O)OCCCc1cccnc1 [Example 23, 3-(3-pyridyl)-1-propyl (2S)-1-(2-cyclohexylethyl-1,2-dioxoethyl)-2-pyrrolidinecarboxylate]	1100	–
–	CCC(C)(C)C(=O)C(=O)N1CCC[C@H]1C(=O)OCCCc1cc(OC)c(OC)c(OC)c1 [Example 3, 3-(3,4,5-trimethoxyphenyl)-1-propyl (2S)-1-(3,3-dimethyl-1,2-dioxopentyl)-2-pyrrolidine-carboxylate]	149	–
450	CCC(C)(C)C(=O)C(=O)N1CCC[C@H]1C(=O)OC/C=C/c1cc(OC)ccc1OC [Example 15, 3-(2,5-dimethoxyphenyl)-1-prop-2-(E)-enyl (2S)-1-(3,3-dimethyl-1,2-dioxopentyl)-2-pyrrolidine-carboxylate]	0.8	–
–	CCC(C)(C)C(=O)C(=O)N1CCC[C@H]1C(=O)OCCc1cc(OC)c(OC)c(OC)c1 [Example 16, 2-(3,4,5-trimethoxyphenyl)-1-ethyl (2S)-1-(3,3-dimethyl-1,2-dioxopentyl)-2-pyrrolidine-carboxylate]	0.015	–
92	O=C(C(=O)N1CCC[C@H]1C(=O)OCCCc1ccccc1)c1cccs1 [Example 11, 3-phenyl-1-propyl (2S)-1-(1,2-dioxo-2-[2-thienyl])ethyl-2-pyrrolidinecarboxylate]	0.015	–
125	CCC(C)(C)C(=O)C(=O)N1CCC[C@H]1C(=O)OC/C=C/c1ccccc1 [Example 2, 3-phenyl-1-prop-2-(E)-enyl (2S)-1-(3,3-dimethyl-1,2-dioxopentyl)-2-pyrrolidinecarboxylate]	105	–
–	CC(C)(C)C(=O)C(=O)N1CCC[C@H]1C(=O)OCCCc1cccnc1 [Example 24, 3-(3-pyridyl)-1-propyl (2S)-1-(2-tert-butyl-1,2-dioxoethyl)-2-pyrrolidinecarboxylate]	0.014	–
4000	O=C(C(=O)N1CCC[C@H]1C(=O)OCCCc1ccccc1)c1ccco1 [Example 10, 3-phenyl-1-propyl (2S)-1-(1,2-dioxo-2-[2-furanyl])ethyl-2-pyrrolidinecarboxylate]	0.46	–
100	O=C(C(=O)N1CCC[C@H]1C(=O)OCCCc1ccccc1)c1nccs1 [Example 12, 3-phenyl-1-propyl (2S)-1-(1,2-dioxo-2-[2-thiazolyl])ethyl-2-pyrrolidinecarboxylate]	–	–
–	O=C(CCC1CCCCC1)C(=O)N1CCC[C@H]1C(=O)OCCCc1ccccc1 [Example 22, 3-phenyl-1-propyl (2S)-1-(2-cyclohexyl-ethyl-1,2-dioxoethyl)-2-pyrrolidinecarboxylate]	0.66	–
150	O=C(C(=O)N1CCC[C@H]1C(=O)OCCC(c1ccccc1)c1ccccc1)c1cccs1 [Example 30, 3,3-Diphenyl-1-propyl (2S)-1-(2-thienyl) glyoxyl-2-pyrrolidinecarboxylate]	100	–
82	O=C(C(=O)N1CCC[C@H]1C(=O)OC(CCc1ccccc1)c1ccccc1)C1CCCCC1 (stereo partly drawn) [Example 20, 3-phenyl-1-phenyl-1-propyl (2S)-1-(2-cyclohexyl-1,2-dioxoethyl)-2-pyrrolidinecarboxylate]	–	EC50 [1, 2]: 0.13 nM
1000	O=C(C(=O)N1CCC[C@H]1C(=O)OCCCc1cccnc1)c1cccs1 [Example 27, 3-(3-Pyridyl)-1-propyl (2S)-N-([2-thienyl]glyoxyl)pyrrolidinecarboxylate]	500	–
–	CCC(C)(C)C(=O)C(=O)N1CCC[C@H]1C(=O)OCCCc1ccncc1 [Example 19, 3-(4-Pyridyl)-1-propyl (2S)-1-(3,3-dimethyl-1,2-dioxopentyl)-2-pyrrolidinecarboxylate]	6	–
65	CCC(C)(C)C(=O)C(=O)N1CCC[C@H]1C(=O)OC/C=C/c1cc(OC)c(OC)c(OC)c1 [Example 4, 3-(3,4,5-trimethoxyphenyl)-1-prop-2-(E)-enyl (2S)-1-(3,3-dimethyl-1,2-dioxopentyl)-2-pyrrolidine carboxylate]	190	–
–	CCC(C)(C)C(=O)C(=O)N1CCC[C@H]1C(=O)OCCCc1ccccc1 [Example 1, 3-phenyl-1-propyl (2S)-1-(3,3-dimethyl-1,2-dioxopentyl)-2-pyrrolidinecarboxylate]	53	axon number, decrease as compared to non-lesioned control (sciatic nerve; [3]): 5%; degree of myelination, decrease as compared to control (sciatic nerve; [3]): 50%; neuronal regeneration, appearance of sciatic nerve sections (sciatic nerve; 30 mg/kg s.c., compared with sham and vehicle-treated lesioned animals): striking similarity to the sham treated animals; also recorded: promotes neuronal regeneration following sciatic nerve lesions; Axon Number (% Control) (sciatic nerve; lesioned rats, 30 mg/kg s.c. daily, Holmes silver stain): 100 % Control; Myelin Level (sciatic nerve; lesioned rats, 30 mg/kg s.c. daily, Luxol fast blue, Sham = 100): 50
–	O=C(C(=O)N1CCC[C@H]1C(=O)OCCCc1cccnc1)C1CCCCC1 [Example 26, 3-(3-pyridyl)-1-propyl (2S)-1-(2-cyclohexyl-1,2-dioxoethyl)-2-pyrrolidinecarboxylate]	2	–
20	O=C(C(=O)N1CCC[C@H]1C(=O)OCCC(c1ccccc1)c1ccccc1)C1CCCCC1 [Example 29, 3,3-Diphenyl-1-propyl (2S)-1-cyclohexyl glyoxyl-2-pyrrolidinecarboxylate]	10	–
–	CC(C)(C)C(=O)C(=O)N1CCC[C@H]1C(=O)OCCCc1ccccc1 [Example 21, 3-phenyl-1-propyl (2S)-1-(2-tert-butyl-1,2-dioxoethyl)-2-pyrrolidinecarboxylate]	0.025	–

Reference: US6500959B1, “Pyrrolidine derivatives and processes for preparing same” (GPI NIL Holdings, Inc., priority 1995, dated 2002)
